Measured values reported in patent US9993497B2, “Use of alginate compositions in preventing or reducing liver damage caused by a hepatotoxic agent” (HADASIT MEDICAL RESEARCH SERVICES AND DEVELOPMENT LTD., priority 2012, dated 2018).

Experiments:
[1] = test system: paracetamol intoxicated mice; experiment: Ki-67 staining of liver tissue (cell proliferation); format: in vivo, mice (C57BL/6); settings: 4 mg paracetamol alone
Protocol: (§1) Briefly, necrosis staining was as follows: sections were first de-paraffinized and then were incubated with rabbit polyclonal IgG. Sections were then incubated with secondary antibody using the MACH 3 Rabbit HRP Polymer Detection and then dehydrated, cleared and mounted in synthetic resin. For color detection, DAB (3,3′-diaminobenzidine) was applied, followed by counterstaining Quantification of necrosis was carried out by the Ariol SL-50 system (Applied Imaging) on microscope slides. Nitrotyrosine and Ki-67 immunostaining staining was performed similarly, using a rabbit polyclonal anti-nitrotyrosine antibody (Abcam) or an anti-Ki-67 antibody (DAKO).

[2] = test system: paracetamol intoxicated mice; experiment: Nitrotyrosine staining of liver tissue (oxidative stress); format: in vivo, mice (C57BL/6); settings: 4 mg paracetamol alone
Protocol: as §1

In the case of `CC(=O)Nc1ccc(O)cc1` [paracetamol, N-acetyl-p-aminophenol], the “Cell proliferation in the liver (Ki-67 staining)” value [1] is reported as “widespread cell proliferation in the liver” and the “Nitrotyrosine staining in liver” value [2] is reported as “extensive centrilobular nitrotyrosine staining”.
